Results as given in patent publication US4540708A, “Sulfenyl carbamate derivatives and insecticidal compositions containing the same” (priority 1982, dated 1985).
Where two headings read alike, the source gives them in different places.

Legend:
[1] = Test Example 4: acute toxicity by oral administration in male mice (Litchfield-Wilcoxon); parameters: unit not given here; conditions: mouse, in vivo, mortality on the seventh day
Experimental: Compounds of this invention were tested on male mice for acute toxicity by oral administration.

[2] = system: tobacco cutworm (Spodoptera litura); test: Test Example 1: mortality of third-instar larvae of tobacco cutworm on cabbage, 3 days; assay type: in vivo; conditions: 72 h
Experimental: Ten third-instar larvae of tobacco cutworm (Spodoptera litura) were placed on a cabbage (one-month-old seedling) planted in a pot, and a 50% emulsion of the compound to be tested was diluted to a specified concentration and applied to the leaves of the plant to fully wet them. The test compound of each specified concentration was tested on two pots.

[3] = system: green rice leafhopper (Nephotettix cincticeps); test: Test Example 2: mortality of female adults of green rice leafhopper on paddy rice, 3 days; assay type: in vivo; conditions: 72 h
Experimental: An emulsion of specified concentration was prepared from a 50% wettable powder of the compound to be tested and applied to the leaves of paddy rice (one-month-old seedlings) planted in a pot to fully wet the leaves. After the emulsion had been dried, the pot was covered with a net cage, into which 10 female adults of green rice leafhopper (Nephotettix cincticeps) were released. The compound of each specified concentration was tested on two pots.

warm-blooded animals = conditions: known compounds, background; cited from earlier work
[4] = system: mites, eelworms and other agricultural and forestry noxious insects and household noxious insects; conditions: known compounds, background; cited from earlier work
[5] = 125 ppm active ingredient, 3 days, read-out: Mortality
[6] = 250 ppm active ingredient, 3 days, read-out: Mortality
[7] = 500 ppm active ingredient, 3 days, read-out: Mortality
[8] = 1000 ppm active ingredient, 3 days, read-out: Mortality
[9] = 200 ppm active ingredient, 3 days, read-out: Mortality
[10] = 400 ppm active ingredient, 3 days, read-out: Mortality
[11] = 800 ppm active ingredient, 3 days, read-out: Mortality

SMILES: COCCN(CCC#N)SN(C)C(=O)Oc1cccc2c1OC(C)(C)C2 [Example 2, 2,3-dihydro-2,2-dimethylbenzofuran-7-yl N-[N-(2-methoxyethyl)-N-cyanoethylaminosulfenyl]N-methyl-carbamate]
- LD50 at 168 h [1]: 98000
- mortality at 125 ppm [2]: 40%
- mortality at 250 ppm [2]: 55%
- mortality at 500 ppm [2]: 70%
- mortality at 1000 ppm [2]: 85%
- mortality at 200 ppm [3]: 65%
- mortality at 400 ppm [3]: 85%
- mortality at 800 ppm [3]: 100%

SMILES: COC(=O)CCN(CCCOc1ccccc1)SN(C)C(=O)Oc1cccc2c1OC(C)(C)C2 [Example 7]
- mortality at 125 ppm [2]: 40%
- mortality at 250 ppm [2]: 60%
- mortality at 500 ppm [2]: 75%
- mortality at 1000 ppm [2]: 85%
- mortality at 200 ppm [3]: 60%
- mortality at 400 ppm [3]: 80%
- mortality at 800 ppm [3]: 100%

SMILES: COCCN(CCC#N)SN(C)C(=O)ON=C(C)SC [Example 17]
- mortality at 125 ppm [2, 5]: 85%
- mortality at 250 ppm [2, 6]: 95%
- mortality at 500 ppm [2, 7]: 100%
- mortality at 1000 ppm [2, 8]: 100%
- mortality at 200 ppm [3, 9]: 80%
- mortality at 400 ppm [3, 10]: 95%
- mortality at 800 ppm [3, 11]: 100%

SMILES: CCCCOC(=O)CCN(CCOC)SN(C)C(=O)ON=C(C)SC [Example 24]
- mortality at 125 ppm [2, 5]: 80%
- mortality at 250 ppm [2, 6]: 95%
- mortality at 500 ppm [2, 7]: 100%
- mortality at 1000 ppm [2, 8]: 100%
- mortality at 200 ppm [3, 9]: 85%
- mortality at 400 ppm [3, 10]: 95%
- mortality at 800 ppm [3, 11]: 100%

SMILES: CCCCOC(=O)CCN(CCOC)SN(C)C(=O)Oc1cccc2c1OC(C)(C)C2 [Example 12]
- mortality at 125 ppm [2]: 40%
- mortality at 250 ppm [2]: 55%
- mortality at 500 ppm [2]: 75%
- mortality at 1000 ppm [2]: 85%
- mortality at 200 ppm [3]: 70%
- mortality at 400 ppm [3]: 85%
- mortality at 800 ppm [3]: 100%

SMILES: COC(=O)CCN(CCCCCOc1ccccc1)SN(C)C(=O)Oc1cccc2c1OC(C)(C)C2 [Example 15]
- mortality at 125 ppm [2]: 40%
- mortality at 250 ppm [2]: 50%
- mortality at 500 ppm [2]: 70%
- mortality at 1000 ppm [2]: 80%
- mortality at 200 ppm [3]: 65%
- mortality at 400 ppm [3]: 80%
- mortality at 800 ppm [3]: 100%

SMILES: COC(=O)CCN(CCOCc1ccccc1)SN(C)C(=O)Oc1cccc2c1OC(C)(C)C2 [Example 13]
- mortality at 125 ppm [2]: 40%
- mortality at 250 ppm [2]: 55%
- mortality at 500 ppm [2]: 70%
- mortality at 1000 ppm [2]: 85%
- mortality at 200 ppm [3]: 65%
- mortality at 400 ppm [3]: 85%
- mortality at 800 ppm [3]: 100%

SMILES: COC(=O)CCN(CCCCOc1ccccc1)SN(C)C(=O)ON=C(C)SC [Example 25]
- mortality at 125 ppm [2, 5]: 80%
- mortality at 250 ppm [2, 6]: 90%
- mortality at 500 ppm [2, 7]: 100%
- mortality at 1000 ppm [2, 8]: 100%
- mortality at 200 ppm [3, 9]: 85%
- mortality at 400 ppm [3, 10]: 90%
- mortality at 800 ppm [3, 11]: 100%

SMILES: COCCN(CCC(=O)OC)SN(C)C(=O)ON=C(C)SC [Example 3, S-methyl N-[{N-methyl-N-(N-methoxyethyl-N-methoxycarbonylethylaminosulfenyl)carbamoyl}oxy]-thioacetimidate]
- mortality at 125 ppm [2, 5]: 55%
- mortality at 250 ppm [2, 6]: 70%
- mortality at 500 ppm [2, 7]: 85%
- mortality at 1000 ppm [2, 8]: 90%
- mortality at 200 ppm [3, 9]: 65%
- mortality at 400 ppm [3, 10]: 90%
- mortality at 800 ppm [3, 11]: 100%

SMILES: COCCCN(CCC(=O)OC)SN(C)C(=O)ON=C(C)SC [Example 16]
- mortality at 125 ppm [2, 5]: 100%
- mortality at 250 ppm [2, 6]: 100%
- mortality at 500 ppm [2, 7]: 100%
- mortality at 1000 ppm [2, 8]: 100%
- mortality at 200 ppm [3, 9]: 90%
- mortality at 400 ppm [3, 10]: 100%
- mortality at 800 ppm [3, 11]: 100%

SMILES: COC(=O)CCN(CCOC(C)C)SN(C)C(=O)ON=C(C)SC [Example 21]
- mortality at 125 ppm [2, 5]: 100%
- mortality at 250 ppm [2, 6]: 100%
- mortality at 500 ppm [2, 7]: 100%
- mortality at 1000 ppm [2, 8]: 100%
- mortality at 200 ppm [3, 9]: 85%
- mortality at 400 ppm [3, 10]: 100%
- mortality at 800 ppm [3, 11]: 100%

SMILES: CCOC(=O)CN(CCCOC)SN(C)C(=O)Oc1cccc2c1OC(C)(C)C2 [Example 6]
- mortality at 125 ppm [2]: 55%
- mortality at 250 ppm [2]: 70%
- mortality at 500 ppm [2]: 80%
- mortality at 1000 ppm [2]: 90%
- mortality at 200 ppm [3]: 70%
- mortality at 400 ppm [3]: 95%
- mortality at 800 ppm [3]: 100%

SMILES: COCCCN(CCC(=O)OC)SN(C)C(=O)Oc1cccc2c1OC(C)(C)C2 [Example 1, 2,3-dihydro-2,2-dimethylbenzofuran-7-yl N-[N-(3-methoxypropyl)-N-methoxycarbonylethylaminosulfenyl]N-methyl carbamate]
- mortality at 125 ppm [2]: 40%
- mortality at 250 ppm [2]: 65%
- mortality at 500 ppm [2]: 80%
- mortality at 1000 ppm [2]: 90%
- mortality at 200 ppm [3]: 70%
- mortality at 400 ppm [3]: 90%
- mortality at 800 ppm [3]: 100%

SMILES: CC(C)OCCCN(CCC#N)SN(C)C(=O)Oc1cccc2c1OC(C)(C)C2 [Example 11]
- mortality at 125 ppm [2]: 35%
- mortality at 250 ppm [2]: 50%
- mortality at 500 ppm [2]: 70%
- mortality at 1000 ppm [2]: 80%
- mortality at 200 ppm [3]: 70%
- mortality at 400 ppm [3]: 90%
- mortality at 800 ppm [3]: 100%

SMILES: CCOC(=O)CN(CCOC)SN(C)C(=O)ON=C(C)SC [Example 19]
- mortality at 125 ppm [2, 5]: 90%
- mortality at 250 ppm [2, 6]: 100%
- mortality at 500 ppm [2, 7]: 100%
- mortality at 1000 ppm [2, 8]: 100%
- mortality at 200 ppm [3, 9]: 90%
- mortality at 400 ppm [3, 10]: 100%
- mortality at 800 ppm [3, 11]: 100%

SMILES: COCCN(CC(=O)OC)SN(C)C(=O)Oc1cccc2c1OC(C)(C)C2 [Example 4]
- LD50 at 168 h [1]: 90000
- mortality at 125 ppm [2]: 45%
- mortality at 250 ppm [2]: 65%
- mortality at 500 ppm [2]: 80%
- mortality at 1000 ppm [2]: 90%
- mortality at 200 ppm [3]: 75%
- mortality at 400 ppm [3]: 95%
- mortality at 800 ppm [3]: 100%

SMILES: CNC(=O)ON=C(C)SC [Control*, S--methyl N--[(methylcarbamoyl)oxy]thioacetimidate]
- toxicity to warm-blooded animals (in words) (warm-blooded animals): high toxicity to warm-blooded animals

SMILES: COC(=O)CCN(CCOC(C)C)SN(C)C(=O)Oc1cccc2c1OC(C)(C)C2 [Example 9]
- mortality at 125 ppm [2]: 40%
- mortality at 250 ppm [2]: 60%
- mortality at 500 ppm [2]: 80%
- mortality at 1000 ppm [2]: 90%
- mortality at 200 ppm [3]: 75%
- mortality at 400 ppm [3]: 90%
- mortality at 800 ppm [3]: 100%

SMILES: CNC(=O)Oc1cccc2c1OC(C)(C)C2 [Control 1, 2,3dihydro-2,2-dimethylbenzofuran-7-yl-N--methylcarbamate]
- insecticidal activity (in words) [4]: high insecticidal activity
- toxicity to warm-blooded animals (in words) (warm-blooded animals): high toxicity to warm-blooded animals

SMILES: COCCN(CC#N)SN(C)C(=O)Oc1cccc2c1OC(C)(C)C2 [Example 5]
- LD50 at 168 h [1]: 68000
- mortality at 125 ppm [2]: 50%
- mortality at 250 ppm [2]: 70%
- mortality at 500 ppm [2]: 80%
- mortality at 1000 ppm [2]: 90%
- mortality at 200 ppm [3]: 70%
- mortality at 400 ppm [3]: 90%
- mortality at 800 ppm [3]: 100%

SMILES: COC(=O)CCN(CCOC1CCCCC1)SN(C)C(=O)ON=C(C)SC [Example 22]
- mortality at 125 ppm [2, 5]: 90%
- mortality at 250 ppm [2, 6]: 100%
- mortality at 500 ppm [2, 7]: 100%
- mortality at 1000 ppm [2, 8]: 100%
- mortality at 200 ppm [3, 9]: 80%
- mortality at 400 ppm [3, 10]: 95%
- mortality at 800 ppm [3, 11]: 100%

SMILES: COC(=O)CCN(CCOC1CCCCC1)SN(C)C(=O)Oc1cccc2c1OC(C)(C)C2 [Example 10]
- mortality at 125 ppm [2]: 35%
- mortality at 250 ppm [2]: 50%
- mortality at 500 ppm [2]: 70%
- mortality at 1000 ppm [2]: 85%
- mortality at 200 ppm [3]: 65%
- mortality at 400 ppm [3]: 85%
- mortality at 800 ppm [3]: 100%

SMILES: COC(=O)CCN(CCCCOc1ccccc1)SN(C)C(=O)Oc1cccc2c1OC(C)(C)C2 [Example 14]
- mortality at 125 ppm [2]: 35%
- mortality at 250 ppm [2]: 50%
- mortality at 500 ppm [2]: 70%
- mortality at 1000 ppm [2]: 80%
- mortality at 200 ppm [3]: 65%
- mortality at 400 ppm [3]: 85%
- mortality at 800 ppm [3]: 100%

SMILES: CCOCCN(CCC(=O)OC)SN(C)C(=O)Oc1cccc2c1OC(C)(C)C2 [Example 8]
- mortality at 125 ppm [2]: 40%
- mortality at 250 ppm [2]: 60%
- mortality at 500 ppm [2]: 80%
- mortality at 1000 ppm [2]: 90%
- mortality at 200 ppm [3]: 75%
- mortality at 400 ppm [3]: 90%
- mortality at 800 ppm [3]: 100%

SMILES: CNC(=O)ON=C(C)SC [Control*]
- mortality at 125 ppm [2, 5]: 85%
- mortality at 250 ppm [2, 6]: 90%

SMILES: COCCN(CC#N)SN(C)C(=O)ON=C(C)SC [Example 18]
- mortality at 125 ppm [2, 5]: 100%
- mortality at 250 ppm [2, 6]: 100%
- mortality at 500 ppm [2, 7]: 100%
- mortality at 1000 ppm [2, 8]: 100%
- mortality at 200 ppm [3, 9]: 80%
- mortality at 400 ppm [3, 10]: 95%
- mortality at 800 ppm [3, 11]: 100%

SMILES: CSC(C)=NOC(=O)N(C)SN(CCC#N)CCCOC(C)C [Example 23]
- mortality at 125 ppm [2, 5]: 85%
- mortality at 250 ppm [2, 6]: 95%
- mortality at 500 ppm [2, 7]: 100%
- mortality at 1000 ppm [2, 8]: 100%
- mortality at 200 ppm [3, 9]: 80%
- mortality at 400 ppm [3, 10]: 95%
- mortality at 800 ppm [3, 11]: 100%

SMILES: COC(=O)CCN(CCCOc1ccccc1)SN(C)C(=O)ON=C(C)SC [Example 20]
- mortality at 125 ppm [2, 5]: 90%
- mortality at 250 ppm [2, 6]: 95%
- mortality at 500 ppm [2, 7]: 100%
- mortality at 1000 ppm [2, 8]: 100%
- mortality at 200 ppm [3, 9]: 80%
- mortality at 400 ppm [3, 10]: 90%
- mortality at 800 ppm [3, 11]: 100%
